Values joined by “and” are separate entries in the source; they are usually repeats but may differ in a detail not shown here. Equal values may be shown once.
Columns and labels:
[1] = for molar entropy: 101.33 kPa, Small sample (50 mg) DSC; for Critical density: DSC; for Critical temperature: DTA; for vapor or sublimation pressure: Twin ebulliometer
[2] = molar heat capacity at saturation pressure; conditions: Liquid, Small sample (50 mg) DSC

c1cc[nH]c1 [pyrrole]
[1]
Conditions | mass density [kg/m3]
323.14 K, Liquid, Vibrating tube method | 943.9
348.13 K, Liquid, Vibrating tube method | 921.2
373.12 K, Liquid, Vibrating tube method | 897.8
398.12 K, Liquid, Vibrating tube method | 873.5
423.11 K, Liquid, Vibrating tube method | 847.6
448.11 K, Liquid, Vibrating tube method | 820.2
468.11 K, Liquid, Vibrating tube method | 796.1
604.6 K, Gas, From heat capacities measured by DSC | 104
623.7 K, Gas, From heat capacities measured by DSC | 148
632.4 K, Gas, From heat capacities measured by DSC | 220
633.5 K, Liquid, From heat capacities measured by DSC | 395
635.4 K, Liquid, From heat capacities measured by DSC | 329
637.8 K, Gas, From heat capacities measured by DSC | 271

[1], Liquid
Conditions | molar entropy [J/K/mol]
360 K | 181.95
380 K | 189.82
400 K | 197.54
420 K | 205.12
440 K | 212.58
460 K | 219.91
480 K | 227.13
500 K | 234.23
520 K | 241.22
540 K | 248.11

Conditions | Critical density [kg/m3] | Critical temperature [K] | molar heat capacity [J/K/mol]
[1], Liquid | 314.2 | 638.5 | –
[2], 360 K | – | – | 143.21
[2], 380 K | – | – | 148.11
[2], 400 K | – | – | 152.99
[2], 420 K | – | – | 157.84
[2], 440 K | – | – | 162.62
[2], 460 K | – | – | 167.28
[2], 480 K | – | – | 171.79
[2], 500 K | – | – | 176.14
[2], 520 K | – | – | 180.48
[2], 540 K | – | – | 185.06

Cc1c[nH]c(C)c1 [2,4-dimethyl-1H-pyrrole]
[1]
Conditions | mass density [kg/m3]
323.14 K, Liquid, Vibrating tube method | 895.5
348.13 K, Liquid, Vibrating tube method | 874.8
373.12 K, Liquid, Vibrating tube method | 853
398.12 K, Liquid, Vibrating tube method | 830.6
423.11 K, Liquid, Vibrating tube method | 807.2
448.11 K, Liquid, Vibrating tube method | 781.3
645.3 K, Gas, From heat capacities measured by DSC | 159
648.6 K, Gas, From heat capacities measured by DSC | 220
649 K, Gas, From heat capacities measured by DSC | 248
650 K, Liquid, From heat capacities measured by DSC | 413
656.5 K, Liquid, From heat capacities measured by DSC | 292

[1], Liquid
Conditions | molar entropy [J/K/mol] | vapor or sublimation pressure
338.25 K | – | 1.995 kPa
343.72 K | – | 2.666 kPa
351.75 K | – | 4 kPa
357.76 K | – | 5.337 kPa
366.62 K | – | 7.992 kPa
373.28 K | – | 10.66 kPa
378.68 K | – | 13.34 kPa
384.24 K | – | 16.66 kPa
388.88 K | – | 19.93 kPa
394.96 K | – | 25.02 kPa and 25.01 kPa
401.09 K | – | 31.17 kPa
407.25 K | – | 38.57 kPa
413.43 K | – | 47.37 kPa
419.66 K | – | 57.81 kPa
425.98 K | – | 70.24 kPa
432.21 K | – | 84.53 kPa
438.54 K | – | 101.33 kPa
440 K | 306.38 | –
444.91 K | – | 120.8 kPa
451.31 K | – | 143.27 kPa
457.75 K | – | 169.05 kPa
460 K | 317.25 | –
464.23 K | – | 198.53 kPa
470.74 K | – | 232.06 kPa
477.28 K | – | 270.07 kPa
480 K | 327.92 | –
500 K | 338.4 | –
520 K | 348.69 | –
540 K | 358.8 | –
560 K | 368.76 | –
580 K | 378.61 | –
600 K | 388.45 | –

Conditions | Critical density [kg/m3] | Critical temperature [K] | molar heat capacity [J/K/mol]
[1], Liquid | 285.8 | 653 | –
[2], 440 K | – | – | 241.31
[2], 460 K | – | – | 247.84
[2], 480 K | – | – | 253.77
[2], 500 K | – | – | 259.54
[2], 520 K | – | – | 265.15
[2], 540 K | – | – | 270.8
[2], 560 K | – | – | 276.99
[2], 580 K | – | – | 284.79
[2], 600 K | – | – | 297.37
